Patent US20060083691A1, “Intranasal opioid compositions, delivery devices and methods of using same” (priority 2000, published 2006)

Key:
Type in all cases: in vivo, human
[1] = Pharmacokinetics and bioequivalence of butorphanol formulation, unit-dose vs multi-dose delivery device; conditions: 2 mg intranasal
Procedure: The experiments described in this example compared bioavailability and other parameters of a butorphanol formulation when administered using a unit-dose or multi-dose delivery device. The butorphanol formulation used for this example (STADOL NS®) contained 10 mg butorphanol tartrate, 6.5 mg sodium chloride, 1.0 mg citric acid, 0.20 mg benzethonium chloride in purified water with 1.2 mg sodium hydroxide and hydrochloric acid added to adjust the pH to 5.0.
The multi-dose sprayer purported by its label to administer 0.1 ml of liquid composition by metering upon activation by the user. The unit-dose spray device was a disposable intranasal applicator that is commercially available from Pfeiffer of America under the designation “Unitdose Second Generation.” Each of the Pfeiffer spray applicators was charged with sufficient liquid to deliver a 0.1 ml dose of the butorphanol formulation. The associated glass containers were filled using a pipette under clean conditions, sealed and assembled to the applicator. Each of the applicators was weighed prior to use and after use. Qualified medical personnel administered one dose into each nostril, after which the applicator was recovered for weighing. In the case of the unit-dose applicators, two devices were used for each patient for a total of 2 mg butorphanol tartrate.
Pharmacokinetics and bioequivalence (intrasubject variabilitiy) of the above-described butorphanol formulation upon administration using either the multi-dose or unit dose delivery device was assessed. The study was initiated with 16 subjects, 15 of which completed the study to provide data for this analysis; one subject dropped out after the second period. The following analysis considers both raw and normalized data, with the latter standardized with respect to the dose dispensed.
For both the raw and normalized data, log transformations are applied to the pharmacokinetic endpoints Cmax, AUC(last), and AUC(inf). A mixed effects model was considered for each parameter. Fixed effects for the factors sequence (4 levels), period 3 levels) and device (2 levels) were included in the model. Additionally, gender, as well as the interactions between gender and each of sequence, period and device was included as a factor in each model to determine whether separate analyses would be necessary for males and females. A total of seven models were considered: Tmax, log of raw Cmax values, log of normalized Cmax values, log transformed values for raw and normalized AUC(last), and log values for raw and normalized AUC(inf). […] In addition, the lack of significance of the effects included in each model indicate that there was no evidence of unequal carryover between the two delivery devices. […]

[2] = Pharmacokinetics of single doses of intranasal butorphanol tartrate, three-way crossover study; conditions: for F(%): relative to 2 mg i.v.
Procedure: Pharmacokinetic parameters of single doses of intranasal butorphanol tartrate using a single-dose, metered sprayer were evaluated in a 24 subject, three-way crossover study. The intranasal formulation contained aqueous buffered solution (pH 5) having 0.2% sodium citrate and 0.2% citric acid and 1 mg of butorphanol tartrate per ml. […] Each volunteer received three treatments: (1) 2 mg of i.v. butorphanol, (2) 2 mg of intranasal butorphanol, and (3) 1 mg of intranasal butorphanol. Each treatment was separated by a 6 day washout period.

[3] = Pharmacokinetics of single or multiple doses of intranasal butorphanol tartrate, two-way crossover study
Procedure: Pharmacokinetic parameters of single doses or multi doses of intranasal butorphanol tartrate using a single-dose, metered sprayer were evaluated in a 12 subject, two-way crossover study. The butorphanol formulation used was as described in Example 2. Each volunteer received either 1 or 2 mg of intranasal butorphanol as a single does (Treatment A) and 1 or 2 mg of intranasal butorphanol every six hours for seven doses (Treatment B). The butorphaonol composition was substantially as described in Example 2. During phase 1, 12 subjects received a single 1 mg dose. During phase 2, those who received the 1 mg single dose received 1 mg every six hours for seven doses. During phase 3, those who received the 2 mg single dose received 2 mg every six hours for seven doses. Serial blood samples were collected over 12 hours. Pharmacokinetic parameters are show in Table 5.

[4] = Multiple Dose 1 mg q 6 hr intranasal
[5] = Multiple Dose 2 mg q 6 hr intranasal

Question: Which “AUC0-t” value ([1]; STADOL NS multi-dose device) does the source give for `O=C(O)C(O)C(O)C(=O)O.Oc1ccc2c(c1)[C@@]13CCCC[C@@]1(O)[C@@H](C2)N(CC1CCC1)CC3` [butorphanol tartrate] here?
Answer: about 9329 pg*hr/ml

Question: And the Cmax ([1]; STADOL NS multi-dose device)?
Answer: about 4027 pg/ml

Question: What about the Tmax ([1]; STADOL NS multi-dose device) of the same compound?
Answer: about 0.245 hr

Question: And the AUC ([1]; unit-dose device)?
Answer: about 10661 pg*hr/ml

Question: And the AUC0-t ([2]; 1 mg intranasal)?
Answer: 4.88 ± 1.5 ng·h/mL

Question: What about the Cmax ([2]; 1 mg intranasal) of the same compound?
Answer: 1.67 ± 0.7 ng/mL

Question: And the “F(%)” value ([2]; 1 mg intranasal)?
Answer: 80.2 ± 29.1%

Question: And the AUC0-t ([2]; 2 mg i.v.)?
Answer: 12.59 ± 2.3 ng·h/mL

Question: What about the Cmax ([2]; 2 mg i.v.) of the same compound?
Answer: 10.32 ± 2.7 ng/mL

Question: And the AUC0-t ([2]; 2 mg intranasal)?
Answer: 9.51 ± 1.9 ng·h/mL

Question: What about the Cmax ([2]; 2 mg intranasal) of the same compound?
Answer: 3.38 ± 1.3 ng/mL

Question: And the “F(%)” value ([2]; 2 mg intranasal)?
Answer: 77.6 ± 18.3%

Question: What about the AUC0-t [3, 4] of the same compound?
Answer: 7.21 ng·h/mL

Question: And the Cmax [3, 4]?
Answer: 1.55 ng/mL

Question: What about the Tmax range [3, 4] of the same compound?
Answer: (0.25-3.0)

Question: What about the AUC0-t [3, 5] of the same compound?
Answer: 15.75 ng·h/mL

Question: What about the Cmax [3, 5] of the same compound?
Answer: 3.80 ng/mL

Question: What about the Tmax range [3, 5] of the same compound?
Answer: (0.25-0.75)

Question: What about the AUC0-t ([3]; Single Dose 1 mg intranasal) of the same compound?
Answer: 3.80 ng·h/mL

Question: What about the Cmax ([3]; Single Dose 1 mg intranasal) of the same compound?
Answer: 1.46 ng/mL

Question: And the Tmax range ([3]; Single Dose 1 mg intranasal)?
Answer: (0.17-1.02)

Question: And the AUC0-t ([3]; Single Dose 2 mg intranasal)?
Answer: 9.55 ng·h/mL

Question: And the Cmax ([3]; Single Dose 2 mg intranasal)?
Answer: 4.13 ng/mL

Question: What about the Tmax range ([3]; Single Dose 2 mg intranasal) of the same compound?
Answer: (0.167-0.5)
